In publication PMC12005767 (Advanced Science, 2025):
Read-outs that look alike come from different tables or passages of the source.

Columns and labels:
HDAC2 = target: T1, HDAC2 (Homo sapiens, UniProt Q92769); assay: In vitro HDACs inhibition fluorescence assay, HDAC2; assay type: biochemical; details: mean ± SEM
T1 construct: purchased BPS Bioscience
Protocol: (§1) In Vitro HDACs Inhibition Fluorescence Assay: For the inhibitory activity against HDAC1‐10, enzymes were also procured from BPS Bioscience. The in vitro […] inhibition assays were conducted following the established method described previously.^[ [45] ^] The working concentrations of HDAC1‐10 were 4 × 10^−9 M. The fluorogenic substrate of HDAC1, 2, 3, and 6 was Boc‐Lys (acetyl)‐AMC, and the substrate of HDAC4, 5, 7, 8, 9, and 10 was Boc‐Lys (trifluoroacetyl) AMC. The developer solution consists of 30 mg mL^−1 trypsin and 5 × 10^−6 M TSA. A standing period of 30 min was sufficient before assessing the fluorescence intensity.

HDAC3 = target: T2, HDAC3 (Homo sapiens, UniProt O15379); assay: In vitro HDACs inhibition fluorescence assay, HDAC3; assay type: biochemical; details: mean ± SEM
T2 construct: purchased BPS Bioscience
Protocol: as §1

HDAC8 = target: T3, HDAC8 (Homo sapiens, UniProt Q9BY41); assay: In vitro HDACs inhibition fluorescence assay, HDAC8; assay type: biochemical
T3 construct: purchased BPS Bioscience
Protocol: as §1

HDAC10 = target: T4, HDAC10 (Homo sapiens, UniProt Q969S8); assay: In vitro HDACs inhibition fluorescence assay, HDAC10; assay type: biochemical; details: mean ± SEM
T4 construct: purchased BPS Bioscience
Protocol: as §1

[1] = tested on: acetylation of histone H3, histone H4, and α-tubulin; assay: Acetylation of histone H3, histone H4 and α-tubulin in HEK293T cells (immunoblot); assay type: cell-based; details: HEK293T cells, 0.25, 0.5 and 1 × 10^−6 M, 24 h
Protocol: Western blot was carried out as described.^[ [49] ^] In brief, samples were lysed with a lysis buffer. The same quantity of total proteins (40–60 µg) from each sample was separated on SDS‐PAGE followed by transfer onto a nitrocellulose filter membrane and incubation with the indicated antibodies. After incubation with secondary antibodies, the protein bands were visualized using a chemiluminescence imaging system. All samples in the same group were processed simultaneously.

ICR mice = assay: Subacute toxicity study in ICR mice; assay type: in vivo
Protocol: For evaluation of subacute toxicity, ICR mice were divided into two groups (n = 8 per group (4M, 4F)). The B6 was prepared in vehicle (10% DMSO and 90% 0.5% HPMC aqueous solution) to administer once daily, by oral gavage for 30 d in the treatment groups. To the control groups, vehicle was administered orally. The animals were monitored for clinical and behavioral symptoms such as body weight, diarrhea, immobility, and mortality during the first day and thereafter for 30 d.

[2] = Hydrophilicity / dissolution in 5% DMSO aqueous solution (HPLC); assay type: physicochemical; details: Figure S2
Protocol: Figure S2. (A) Liquid chromatograms of compounds A8 and B6 in methanol and 5% DMSO aqueous solution, respectively. The chromatograms were determined with an Agilent 1260 HPLC, using an Agilent 5 TC-C18 column (5 μm, 250mm× 4.6 mm). The eluent system was made up of solvent A (water) and solvent B (methanol). Elution conditions: phase B was 85% The peaks were detected at 254 nm at a flow rate was 1.0 mL/min. (B) The peak areas of serially diluted compound B6 were determined under the above-mentioned liquid chromatographic conditions, and a linear regression equation was fitted. (C) The dissolution status/solubility condition of compounds A8 and B6 in a 5% DMSO aqueous solution.

[3] = 50 mg kg^−1 p.o. daily for 30 d, vs control group

T3 sequence (Q9BY41 whole entry): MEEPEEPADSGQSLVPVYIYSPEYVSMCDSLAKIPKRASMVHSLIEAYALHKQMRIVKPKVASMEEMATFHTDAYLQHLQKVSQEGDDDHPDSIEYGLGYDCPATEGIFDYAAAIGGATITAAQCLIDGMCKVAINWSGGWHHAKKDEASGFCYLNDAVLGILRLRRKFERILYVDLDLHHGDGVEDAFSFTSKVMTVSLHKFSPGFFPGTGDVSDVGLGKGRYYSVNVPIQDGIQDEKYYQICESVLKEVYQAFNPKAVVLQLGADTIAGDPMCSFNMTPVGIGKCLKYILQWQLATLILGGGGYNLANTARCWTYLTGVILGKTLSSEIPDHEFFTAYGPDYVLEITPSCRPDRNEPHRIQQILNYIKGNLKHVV
T2 sequence (O15379 whole entry): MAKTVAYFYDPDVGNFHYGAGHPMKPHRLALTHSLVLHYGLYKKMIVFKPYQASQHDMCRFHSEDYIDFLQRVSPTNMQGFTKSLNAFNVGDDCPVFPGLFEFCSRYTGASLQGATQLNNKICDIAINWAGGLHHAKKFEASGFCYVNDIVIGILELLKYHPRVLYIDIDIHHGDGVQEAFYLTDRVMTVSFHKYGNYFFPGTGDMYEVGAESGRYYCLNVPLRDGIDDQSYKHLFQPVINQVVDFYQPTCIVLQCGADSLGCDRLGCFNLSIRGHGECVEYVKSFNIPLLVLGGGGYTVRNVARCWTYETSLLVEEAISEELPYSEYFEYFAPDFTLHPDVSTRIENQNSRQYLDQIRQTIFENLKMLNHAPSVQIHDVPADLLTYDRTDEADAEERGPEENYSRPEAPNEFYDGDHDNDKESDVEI
T2 sequence (Q9Y618 395-489 partner limits assumed): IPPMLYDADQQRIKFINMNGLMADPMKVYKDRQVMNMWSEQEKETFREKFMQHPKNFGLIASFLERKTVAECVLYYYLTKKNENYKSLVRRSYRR
T4 sequence (Q969S8 whole entry): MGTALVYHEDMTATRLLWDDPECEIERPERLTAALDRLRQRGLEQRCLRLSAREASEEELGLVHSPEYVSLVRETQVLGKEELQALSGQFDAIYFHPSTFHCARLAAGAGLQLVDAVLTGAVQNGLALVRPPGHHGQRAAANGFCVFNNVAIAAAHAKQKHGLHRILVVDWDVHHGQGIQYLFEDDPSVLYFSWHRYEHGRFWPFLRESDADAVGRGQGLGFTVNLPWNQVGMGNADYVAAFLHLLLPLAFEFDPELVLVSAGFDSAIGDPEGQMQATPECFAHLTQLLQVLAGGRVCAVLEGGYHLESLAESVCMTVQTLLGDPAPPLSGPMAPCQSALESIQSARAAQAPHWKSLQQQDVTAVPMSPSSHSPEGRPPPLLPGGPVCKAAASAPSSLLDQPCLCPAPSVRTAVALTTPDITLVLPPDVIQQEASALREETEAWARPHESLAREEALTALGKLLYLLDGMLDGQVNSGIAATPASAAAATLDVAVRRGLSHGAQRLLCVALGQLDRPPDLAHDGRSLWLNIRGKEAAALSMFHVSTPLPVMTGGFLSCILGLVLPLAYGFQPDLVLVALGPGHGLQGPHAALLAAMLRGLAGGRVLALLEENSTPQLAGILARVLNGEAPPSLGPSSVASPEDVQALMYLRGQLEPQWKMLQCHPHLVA
T1 sequence (Q92769 whole entry): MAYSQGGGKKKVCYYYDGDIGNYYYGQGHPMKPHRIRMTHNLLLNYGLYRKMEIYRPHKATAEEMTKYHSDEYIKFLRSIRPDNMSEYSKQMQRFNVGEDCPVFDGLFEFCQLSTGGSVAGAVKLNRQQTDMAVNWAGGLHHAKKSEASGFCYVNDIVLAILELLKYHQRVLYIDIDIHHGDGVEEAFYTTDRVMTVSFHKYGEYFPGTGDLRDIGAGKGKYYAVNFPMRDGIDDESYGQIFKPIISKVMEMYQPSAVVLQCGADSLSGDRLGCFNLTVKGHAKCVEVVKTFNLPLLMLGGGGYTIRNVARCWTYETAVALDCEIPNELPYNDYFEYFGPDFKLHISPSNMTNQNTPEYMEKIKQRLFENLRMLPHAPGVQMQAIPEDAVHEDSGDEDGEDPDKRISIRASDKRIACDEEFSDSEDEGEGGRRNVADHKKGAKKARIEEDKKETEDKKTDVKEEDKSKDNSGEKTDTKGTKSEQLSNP

## CCCCCOCCCCCNNC(=O)c1ccc(CNC(=O)c2ccccc2)cc1 [B6]
HDAC2
  IC50: > 10 µM
HDAC3
  IC50: > 10 µM
HDAC8
  IC50: 5 µM
HDAC8; mean ± SEM
  IC50: 4.76 ± 0.159 µM
HDAC10
  IC50: > 10 µM
[1]
  acetylation levels of histones H3 and H4 or tubulin: no effect
ICR mice; 50 mg kg^−1 p.o. daily for 30 d, ICR mice
  overall health and behavior: no signs of toxicity
ICR mice; [3]
  body weight of male and female mice: did not induce any significant abnormal changes
  histopathological evaluations of liver, kidneys, heart, spleen and lungs: no significant differences
ICR mice; 50 mg kg^−1 vs effective dose 5 mg kg^−1
  therapeutic window: at least tenfold
[2]
  hydrophilicity relative to parent compound A8: improved the hydrophilicity
